# Laboratory results: BindingDB's records for patent US12291519 (Idorsia Pharmaceuticals, 2025)
# Key:
# Galectin-1 = Galectin-1 (Homo sapiens, UniProt P09382); test: Biological Assay
# Protocol: (§1) The inhibitory activity of compounds is determined in competitive binding assays. […] Finally, 25 μL/well of ABTS substrate is added.
# Galectin-3 = Galectin-3 (Homo sapiens, UniProt P17931); test: Biological Assay
# Protocol: as §1
# Galectin-3, sequence (P17931 whole entry): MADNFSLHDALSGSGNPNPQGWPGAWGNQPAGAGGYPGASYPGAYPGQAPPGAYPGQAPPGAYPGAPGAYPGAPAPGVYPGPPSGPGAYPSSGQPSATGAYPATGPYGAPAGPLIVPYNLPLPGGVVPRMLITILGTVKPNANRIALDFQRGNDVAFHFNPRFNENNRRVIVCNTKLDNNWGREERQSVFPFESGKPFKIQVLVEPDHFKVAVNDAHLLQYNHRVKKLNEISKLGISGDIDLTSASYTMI
# Galectin-1, sequence (P09382 whole entry): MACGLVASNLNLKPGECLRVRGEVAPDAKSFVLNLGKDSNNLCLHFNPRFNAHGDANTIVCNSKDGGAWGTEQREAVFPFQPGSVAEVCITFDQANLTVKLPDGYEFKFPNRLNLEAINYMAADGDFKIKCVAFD
Compound,IC50 (Galectin-1),IC50 (Galectin-3)
"CO[C@@H]1[C@@H](n2cc(-c3cccc(F)c3)nn2)[C@@H](O)[C@@H](CO)O[C@H]1C(=O)N(c1cc(Br)cc(C#N)c1)[C@H]1CCCC[C@@H]1O [US12291519, Example 77]",140 nM,37 nM
"CO[C@@H]1[C@@H](n2cc(-c3cc(F)c(F)c(F)c3)nn2)[C@@H](O)[C@@H](CO)O[C@H]1C(=O)N(c1cc(Br)cc(C#N)c1)[C@H]1CCCC[C@@H]1O [US12291519, Example 112]",150 nM,8 nM
"COc1cc(-c2cn([C@H]3[C@@H](O)[C@@H](CO)O[C@@H](C(=O)N(c4cc(Cl)cc(C#N)c4)[C@H]4CCCC[C@@H]4O)[C@@H]3OC)nn2)ccc1Cl [US12291519, Example 184]",282 nM,29 nM
"Cn1ccc(CN(C(=O)[C@@H]2O[C@H](CO)[C@H](O)[C@H](n3cc(-c4cc(F)c(F)c(F)c4)nn3)[C@H]2O)[C@H]2CCCC[C@@H]2O)n1 [US12291519, Example 24]",25900 nM,294 nM
"CO[C@@H]1[C@@H](n2cc(-c3cc(F)c(F)c(F)c3)nn2)[C@@H](O)[C@@H](CO)O[C@H]1C(=O)N(c1ccc(Cl)c(Cl)c1)[C@H]1CCCC[C@@H]1O [US12291519, Example 98]",169 nM,33 nM
"CO[C@@H]1[C@@H](n2cc(-c3cc(F)c(Cl)c(Cl)c3)nn2)[C@@H](O)[C@@H](CO)O[C@H]1C(=O)N(c1cc(Cl)cc(C#N)c1)[C@H]1CCCC[C@@H]1O [US12291519, Example 169]",333 nM,14 nM
"CO[C@@H]1[C@@H](n2cc(-c3cc(F)c(Cl)cc3F)nn2)[C@@H](O)[C@@H](CO)O[C@H]1C(=O)N(c1cc(Cl)cc(C#N)c1)[C@H]1CCCC[C@@H]1O [US12291519, Example 182]",267 nM,35 nM
"O=C([C@@H]1O[C@H](CO)[C@H](O)C(n2cc(-c3cc(F)c(F)c(F)c3)nn2)[C@H]1OCCO)N(c1cc(Cl)cc(Cl)c1)[C@H]1CCCC[C@@H]1O (stereo partly drawn) [US12291519, Example 196]",161 nM,21 nM
"Cc1nc(CN(C(=O)[C@@H]2O[C@H](CO)[C@H](O)[C@H](n3cc(-c4cc(F)c(F)c(F)c4)nn3)[C@H]2O)[C@H]2CCCC[C@@H]2O)c[nH]1 [US12291519, Example 14]",40600 nM,564 nM
"COc1cc(-c2cn([C@H]3[C@@H](O)[C@@H](CO)O[C@@H](C(=O)N(c4cc(Cl)cc(Cl)c4)[C@H]4CCCC[C@@H]4O)[C@@H]3OC)nn2)cc(F)c1F [US12291519, Example 183]",516 nM,9 nM
"CO[C@@H]1[C@@H](n2cc(-c3cccc(F)c3)nn2)[C@@H](O)[C@@H](CO)O[C@H]1C(=O)N(c1cc(Cl)cc(Cl)c1)[C@H]1CCCC[C@@H]1O [US12291519, Example 72]",58 nM,31 nM
"CO[C@@H]1[C@@H](n2cc(-c3cc(F)cc(F)c3)nn2)[C@@H](O)[C@@H](CO)O[C@H]1C(=O)N(c1cc(Cl)cc(Cl)c1)[C@H]1CCCC[C@@H]1O [US12291519, Example 78]",192 nM,26 nM
"CO[C@@H]1[C@@H](n2cc(-c3cc(F)c(Cl)c(F)c3)nn2)[C@@H](O)[C@@H](CO)O[C@H]1C(=O)N(c1cc(Cl)cc(Cl)c1)[C@H]1CCCC[C@@H]1O [US12291519, Example 156]",1380 nM,14 nM
"Cn1cnc(CN(C(=O)[C@@H]2O[C@H](CO)[C@H](O)[C@H](n3cc(-c4cc(F)c(F)c(F)c4)nn3)[C@H]2O)[C@H]2CCCC[C@@H]2O)c1 [US12291519, Example 19]",37600 nM,403 nM
"O=C([C@@H]1O[C@H](CO)[C@H](O)[C@H](n2cc(-c3cc(F)c(Cl)c(F)c3)nn2)[C@H]1O)N(Cc1ccccc1C(F)(F)F)[C@H]1CCCC[C@@H]1O [US12291519, Example 67]",610 nM,42 nM
"COc1cc(C#N)cc(N(C(=O)[C@@H]2O[C@H](CO)[C@H](O)[C@H](n3cc(-c4ccc(Cl)c(Cl)c4)nn3)[C@H]2OC)[C@H]2CCCC[C@@H]2O)c1 [US12291519, Example 188]",1120 nM,44 nM
"CO[C@@H]1[C@@H](n2cc(-c3ccc(C(F)(F)F)c(F)c3)nn2)[C@@H](O)[C@@H](CO)O[C@H]1C(=O)N(c1cc(Cl)cc(Cl)c1)[C@H]1CCCC[C@@H]1O [US12291519, Example 180]",1200 nM,11 nM
"CO[C@@H]1[C@@H](n2cc(-c3cc(F)cc(Cl)c3)nn2)[C@@H](O)[C@@H](CO)O[C@H]1C(=O)N(c1cc(Cl)cc(C#N)c1)[C@H]1CCCC[C@@H]1O [US12291519, Example 133]",184 nM,22 nM
"CO[C@@H]1[C@@H](n2cc(-c3cc(F)c(Cl)c(F)c3)nn2)[C@@H](O)[C@@H](CO)O[C@H]1C(=O)N(c1cc(Cl)cc(C#N)c1)[C@H]1CCCC[C@@H]1O [US12291519, Example 157]",709 nM,19 nM
